Where two headings read alike, the source gives them in different places.
Legend:
Ros1 enzyme = target: T1, Ros1 enzyme (Homo sapiens, UniProt P08922); assay: Ros1 enzymatic assay; assay type: biochemical; conditions: Ros1 enzymatic assay; read-out: ROS1 pIC50 (converted)
T1 construct: 0.5 μg/ml Ros1 enzyme
Protocol: Compounds were spotted onto white 384-well Proxiplate plus plates (Perkin Elmer) to which 5 μl of enzyme mix (0.5 μg/ml Ros1 enzyme, 50 mM Tris-HCl pH7.5, 1 mM EGTA, 10 mM MgCl2, 0.01% Tween-20) and 5 μl of substrate mix (6 μg/ml IRS-Tide [American Peptide Company], 20 μM ATP, 13.33 μCi/ml ATP (adenosine 5′-triphosphate) P^33, 50 mM Tris-HCl pH7.5, 1 mM EGTA (ethylene glycol-bis(2-aminoethylether)-N,N,N′,N′-tetraacetic acid), 10 mM MgCl2, 0.01% Tween-20) were added. After incubation for 120 minutes at room temperature, 10 μl of stop reaction buffer (5 mM EDTA, 50 μM ATP, 0.1% BSA (bovine serum albumin), 0.1% Triton X-100, 50 mM Tris-HCl pH7.5, 1 mM EGTA, 10 mM MgCl2, 0.01% Tween-20) containing 2 mg/ml streptavidin coupled polystyrene imaging beads (Amersham Biosciences) was added and incubated for 15 minutes at room temperature. Plates were centrifuged for 3 minutes at 1500 rpm and signals detected in a LEADseeker imaging system (GE).

[1] = target: T2, Ba/F3 cells containing Ros1 wild-type protein (Homo sapiens, UniProt P08922, cells depend on it, form not given); assay: Ba/F3-Ros1 cell proliferation assay, wild-type Ros1; assay type: cell-based, murine; conditions: without IL-3
T2 construct: The background only speaks of 'a number of different unrelated proteins' and names SLC34A2-ROS1 for HCC78 cells
T2 sequence (P08922 whole entry, stated change not applied): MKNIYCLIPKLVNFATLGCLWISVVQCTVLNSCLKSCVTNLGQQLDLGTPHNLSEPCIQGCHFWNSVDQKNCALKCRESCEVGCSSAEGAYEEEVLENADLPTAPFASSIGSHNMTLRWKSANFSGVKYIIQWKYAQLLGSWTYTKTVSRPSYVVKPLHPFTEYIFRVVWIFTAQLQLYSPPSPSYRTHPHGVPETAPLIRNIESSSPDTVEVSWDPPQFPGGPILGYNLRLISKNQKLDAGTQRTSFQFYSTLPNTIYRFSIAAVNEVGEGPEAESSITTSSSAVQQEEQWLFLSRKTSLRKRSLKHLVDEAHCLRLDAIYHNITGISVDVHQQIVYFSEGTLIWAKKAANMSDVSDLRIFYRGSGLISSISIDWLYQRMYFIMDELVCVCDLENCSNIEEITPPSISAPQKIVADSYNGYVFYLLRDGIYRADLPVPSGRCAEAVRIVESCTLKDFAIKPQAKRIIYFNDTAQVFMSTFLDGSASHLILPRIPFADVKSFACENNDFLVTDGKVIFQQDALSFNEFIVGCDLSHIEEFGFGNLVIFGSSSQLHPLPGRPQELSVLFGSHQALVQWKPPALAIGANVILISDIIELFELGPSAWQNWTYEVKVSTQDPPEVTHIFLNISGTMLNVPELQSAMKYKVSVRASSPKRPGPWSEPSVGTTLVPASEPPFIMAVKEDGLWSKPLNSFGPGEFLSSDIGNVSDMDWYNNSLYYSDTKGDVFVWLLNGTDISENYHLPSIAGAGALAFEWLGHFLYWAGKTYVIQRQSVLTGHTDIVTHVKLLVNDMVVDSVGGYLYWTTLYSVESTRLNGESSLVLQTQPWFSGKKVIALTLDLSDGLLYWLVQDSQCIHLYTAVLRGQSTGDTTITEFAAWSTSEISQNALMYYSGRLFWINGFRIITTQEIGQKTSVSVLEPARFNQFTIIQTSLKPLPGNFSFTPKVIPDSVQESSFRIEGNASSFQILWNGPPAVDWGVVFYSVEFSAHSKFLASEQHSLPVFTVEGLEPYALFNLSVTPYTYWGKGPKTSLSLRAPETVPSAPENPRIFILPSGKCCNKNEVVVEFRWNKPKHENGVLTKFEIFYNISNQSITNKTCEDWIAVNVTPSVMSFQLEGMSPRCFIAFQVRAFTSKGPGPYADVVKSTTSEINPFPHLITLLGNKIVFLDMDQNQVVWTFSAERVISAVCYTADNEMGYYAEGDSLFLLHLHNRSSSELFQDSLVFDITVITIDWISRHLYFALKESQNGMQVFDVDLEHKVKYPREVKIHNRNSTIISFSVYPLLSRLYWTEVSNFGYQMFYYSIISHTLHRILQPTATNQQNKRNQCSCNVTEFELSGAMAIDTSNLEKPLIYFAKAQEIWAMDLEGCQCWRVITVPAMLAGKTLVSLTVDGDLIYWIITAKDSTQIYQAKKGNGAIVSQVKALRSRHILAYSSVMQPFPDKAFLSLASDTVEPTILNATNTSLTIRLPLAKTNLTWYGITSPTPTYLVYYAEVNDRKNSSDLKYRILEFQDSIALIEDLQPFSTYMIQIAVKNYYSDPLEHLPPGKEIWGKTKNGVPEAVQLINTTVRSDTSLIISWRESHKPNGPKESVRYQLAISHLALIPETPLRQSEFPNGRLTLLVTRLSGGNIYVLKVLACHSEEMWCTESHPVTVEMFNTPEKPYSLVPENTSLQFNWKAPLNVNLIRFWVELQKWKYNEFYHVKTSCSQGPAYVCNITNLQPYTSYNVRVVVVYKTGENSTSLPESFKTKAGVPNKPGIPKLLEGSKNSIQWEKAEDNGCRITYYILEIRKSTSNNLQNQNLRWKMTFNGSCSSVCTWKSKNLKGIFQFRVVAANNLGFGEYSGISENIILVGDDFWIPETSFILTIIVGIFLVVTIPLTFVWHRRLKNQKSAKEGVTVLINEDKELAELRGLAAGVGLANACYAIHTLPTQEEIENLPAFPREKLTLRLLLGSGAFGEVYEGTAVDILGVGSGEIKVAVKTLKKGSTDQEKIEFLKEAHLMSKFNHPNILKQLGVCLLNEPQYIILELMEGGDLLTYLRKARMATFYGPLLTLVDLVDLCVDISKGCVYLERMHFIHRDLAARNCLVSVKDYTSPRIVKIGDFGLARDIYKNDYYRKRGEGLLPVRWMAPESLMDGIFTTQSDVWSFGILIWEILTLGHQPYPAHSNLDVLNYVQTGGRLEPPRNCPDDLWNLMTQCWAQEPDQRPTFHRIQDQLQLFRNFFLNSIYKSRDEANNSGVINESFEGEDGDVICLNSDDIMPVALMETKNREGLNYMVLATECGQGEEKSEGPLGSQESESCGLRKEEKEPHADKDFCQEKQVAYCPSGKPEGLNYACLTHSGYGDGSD
Protocol: (§1) Ba/F3-Ros1 Cell Proliferation Assay
(§2) This assay was carried out with Ba/F3 cells containing three different versions of Ros1: the wild-type protein, protein with a mutation at the gatekeeper residue (L2026M), and protein with a mutation identified in a tumor from a patient that became resistant to crizotinib (Xalkori®) treatment (G2032R). Compounds were solubilized in 100% DMSO (dimethyl sulfoxide) and sprayed into polystyrene, tissue culture treated 384-well plates. A 50 μl volume of cell culture medium (phenol red free RPMI-1640, 10% FBS (fetal bovine serum), 2 mM L-Glutamine) containing 20000 Ba/F3-Ros1 cells was added to each well and the plates were placed in an incubator at 37° C. and 5% CO2. After 24 hours, 10 μl of Alamar Blue solution (0.5 mM K3Fe(CN)6, 0.5 mM K4Fe(CN)6, 0.15 mM Resazurin and 100 mM Phosphate Buffer) was added to the wells, incubated for 4 hours at 37° C. and 5% CO2 before RFU's (Relative Fluorescence Units) (ex. 540 nm., em. 590 nm.) were measured in a fluorescence plate reader.

[2] = target: Ba/F3 cells containing Ros1 with a mutation at the gatekeeper residue (L2026M) (Homo sapiens, UniProt P08922, L2026M, cells depend on it, form not given); assay: Ba/F3-Ros1 cell proliferation assay, L2026M gatekeeper mutant; assay type: cell-based, murine; conditions: without IL-3
Chain of Ba/F3 cells containing Ros1 with a mutation at the gatekeeper residue (L2026M) (P08922 whole entry L2026M, form open): as the sequence (P08922 whole entry, stated change not applied) above, with L2026M counted along it
Protocol: as §1, §2

[3] = system: HCC78 non-small cell lung cancer cells; assay: HCC78 cell proliferation assay; assay type: cell-based; conditions: for EC50: Homo sapiens, HCC78, 96 h, read-out: HCC-78 PROL pEC50 (converted)
Protocol: HCC78 Cell Proliferation Assay
Approximately 1000 HCC78 non-small cell lung cancer cells in 180 μl of cell culture medium (RPMI-1640, 10% FBS, 2 mM L-Glutamine, 10 mM Hepes, 1 mM sodium pyruvate, 4.5 g/L glucose, 1.5 g/L sodium bicarbonate, 25 μg/ml Gentamycin) were seeded in each well of a 96-well polystyrene, tissue-culture treated plate and incubated at 37° C. and 5% CO2. After 24 hours, compounds were diluted in cell culture medium from which 20 μl was added to the wells containing cells and incubated for 4 days at 37° C. and 5% CO2. A 5 mg/ml solution of the tetrazolium dye MTT was prepared in PBS (phosphate-buffered saline) and 25 μl was added to each well. After 2 hours the medium was removed and replaced by 125 μL of 4/1 DMSO/glycine buffer (0.1M glycine, 0.1M NaCl, pH 10.5) before absorbance was determined at 538 nm.

[4] = system: Ba/F3 cells containing Ros1 wild-type protein + IL-3; assay: Ba/F3-Ros1 cell proliferation counter-screen, wild-type protein in the presence of 10 ng/ml murine IL-3; assay type: cell-based; conditions: Mus musculus, BaF3, 24 h, read-out: BaF3-ROS1 + IL3 pIC50 (converted)
Protocol: as §2
As a counter-screen the same experiment was performed for the wild-type protein in the presence of 10 ng/ml murine IL-3.

[5] = counter-screen, wild-type, 10 ng/ml murine IL-3

T1 sequence (P08922 28-2347): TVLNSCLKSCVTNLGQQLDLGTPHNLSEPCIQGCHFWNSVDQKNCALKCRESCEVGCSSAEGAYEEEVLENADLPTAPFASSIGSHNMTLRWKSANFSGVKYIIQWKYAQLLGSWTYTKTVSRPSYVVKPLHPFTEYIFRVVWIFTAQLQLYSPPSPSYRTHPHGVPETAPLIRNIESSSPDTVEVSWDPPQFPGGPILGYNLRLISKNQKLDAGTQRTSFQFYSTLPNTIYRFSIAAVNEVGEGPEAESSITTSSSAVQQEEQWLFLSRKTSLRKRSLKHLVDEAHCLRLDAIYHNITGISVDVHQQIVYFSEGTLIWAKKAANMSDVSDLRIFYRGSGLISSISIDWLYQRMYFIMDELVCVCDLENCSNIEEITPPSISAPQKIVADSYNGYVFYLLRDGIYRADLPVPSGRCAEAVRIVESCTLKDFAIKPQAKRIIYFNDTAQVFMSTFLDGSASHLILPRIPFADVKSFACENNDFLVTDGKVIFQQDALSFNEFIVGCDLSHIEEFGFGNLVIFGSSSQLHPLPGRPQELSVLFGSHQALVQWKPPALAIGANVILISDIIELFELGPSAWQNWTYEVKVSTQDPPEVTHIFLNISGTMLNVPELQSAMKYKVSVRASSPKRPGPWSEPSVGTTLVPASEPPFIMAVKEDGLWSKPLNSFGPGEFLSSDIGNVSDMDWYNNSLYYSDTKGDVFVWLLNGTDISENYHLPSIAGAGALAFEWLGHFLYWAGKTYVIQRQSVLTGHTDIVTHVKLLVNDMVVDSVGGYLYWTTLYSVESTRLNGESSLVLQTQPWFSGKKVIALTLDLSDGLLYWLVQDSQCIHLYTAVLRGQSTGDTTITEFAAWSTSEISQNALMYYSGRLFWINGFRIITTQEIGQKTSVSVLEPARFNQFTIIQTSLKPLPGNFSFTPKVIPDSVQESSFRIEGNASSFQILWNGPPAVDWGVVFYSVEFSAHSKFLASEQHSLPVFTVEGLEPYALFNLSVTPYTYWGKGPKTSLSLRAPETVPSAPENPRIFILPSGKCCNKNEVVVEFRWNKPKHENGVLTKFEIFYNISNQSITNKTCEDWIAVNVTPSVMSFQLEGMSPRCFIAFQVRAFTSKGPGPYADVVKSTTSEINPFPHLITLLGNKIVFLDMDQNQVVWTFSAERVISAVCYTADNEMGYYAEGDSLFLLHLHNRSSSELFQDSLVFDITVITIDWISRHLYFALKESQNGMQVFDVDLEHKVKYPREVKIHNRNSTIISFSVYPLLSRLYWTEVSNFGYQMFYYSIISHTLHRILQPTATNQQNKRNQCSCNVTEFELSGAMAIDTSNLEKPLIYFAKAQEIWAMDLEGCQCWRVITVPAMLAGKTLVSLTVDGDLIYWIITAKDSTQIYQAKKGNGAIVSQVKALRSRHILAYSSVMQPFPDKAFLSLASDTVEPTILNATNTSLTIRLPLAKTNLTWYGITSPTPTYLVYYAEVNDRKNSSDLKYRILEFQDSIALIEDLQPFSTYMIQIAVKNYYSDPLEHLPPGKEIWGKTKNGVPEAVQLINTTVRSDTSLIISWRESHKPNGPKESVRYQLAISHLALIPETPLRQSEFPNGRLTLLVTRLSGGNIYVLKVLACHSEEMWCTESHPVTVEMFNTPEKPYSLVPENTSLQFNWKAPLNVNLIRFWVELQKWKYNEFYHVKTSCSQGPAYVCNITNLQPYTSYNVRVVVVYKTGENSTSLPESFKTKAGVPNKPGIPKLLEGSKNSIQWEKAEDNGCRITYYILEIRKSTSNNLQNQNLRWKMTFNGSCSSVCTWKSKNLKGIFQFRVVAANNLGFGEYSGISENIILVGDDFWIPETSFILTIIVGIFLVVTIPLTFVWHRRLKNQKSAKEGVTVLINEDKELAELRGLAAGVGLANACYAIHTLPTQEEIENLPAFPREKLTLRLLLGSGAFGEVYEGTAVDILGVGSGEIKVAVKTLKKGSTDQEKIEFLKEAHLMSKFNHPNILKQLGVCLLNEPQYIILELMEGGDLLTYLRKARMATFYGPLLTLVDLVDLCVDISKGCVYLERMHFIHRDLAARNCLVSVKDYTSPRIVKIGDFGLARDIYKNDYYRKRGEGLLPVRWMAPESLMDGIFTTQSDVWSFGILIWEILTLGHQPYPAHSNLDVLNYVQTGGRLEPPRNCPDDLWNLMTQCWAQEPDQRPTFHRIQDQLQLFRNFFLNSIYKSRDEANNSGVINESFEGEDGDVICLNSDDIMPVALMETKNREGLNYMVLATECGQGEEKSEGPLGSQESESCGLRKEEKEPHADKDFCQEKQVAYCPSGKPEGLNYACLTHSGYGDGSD

| SMILES | IC50 (Ros1 enzyme) [nM] | BaF3-ROS1-IL3 pIC50 [1] | Ba/F3 Ros1 L2026M (-IL-3) pIC50 [2] | HCC-78 PROL pEC50 ([3]; HCC78 cells, 4 days, MTT) | CC50 [4, 5] [nM] | EC50 [3] [nM] | CC50 [4] [nM] | EC50 ([3]; HCC78 cells, 4 days, MTT) [nM] | melting point [°C] |
| --- | --- | --- | --- | --- | --- | --- | --- | --- | --- |
| CC(C)c1ccc(COc2ccc(-c3c(-c4ccncc4)nn4c3C(=O)N(C(C)CO)CC4)cc2)cc1 (single isomer, unassigned) [Compound 39] | 79.4 | 7.3 | 7.0 | 6.8 | > 10000 |  |  |  |  |
| CC(C)c1ccc(COc2cc(F)c(-c3c(-c4ccncc4)nn4c3C(=O)NCC4)cc2F)cc1 [Compound 14] | 6.31 | 7.8 | 8.2 |  |  | < 31.6 | > 10000 |  |  |
| CC(C)c1ccc(COc2c(F)cc(-c3c(-c4ccncc4)nn4c3C(=O)NCC4)cc2F)cc1 [Compound 15] | 39.8 | 7.5 | 7.5 |  |  | 50.1 | > 10000 |  |  |
| Cc1cc(-c2c(-c3ccncc3)nn3c2C(=O)N(CCO)CC3)ccc1OCc1ccc(C(C)C)cc1 [Compound 31] | 1580 | 6.3 | 5.9 |  |  | 6310 | > 10000 |  |  |
| CC(C)c1ccc(COc2ccc(-c3c(-c4ccncc4)nn4c3C(=O)N(CC3CNC(=O)O3)CC4)cc2)cc1 (stereo not shown) [Compound 56] | 39.8 | 7.5 | 7.0 |  |  | 126 | > 10000 |  |  |
| CC(C)c1ccc(COc2ccc(-c3c(-c4ccncc4)nn4c3C(=O)N(CCCN)CC4)cc2)cc1 [Compound 58] | 20 | 7.3 | 7.0 |  | 6310 |  |  | 1000 |  |
| CC(C)c1ccc(COc2ccc(-c3c(-c4ccncc4)nn4c3C(=O)N(CCN)CC4)cc2)cc1 [Compound 59] | 63.1 | 6.4 | ~6.1 |  | 5010 |  |  | 501 |  |
| CNCCN1CCn2nc(-c3ccncc3)c(-c3ccc(OCc4ccc(C(C)C)cc4)cc3)c2C1=O [Compound 60] | 63.1 | 6.6 | 6.2 |  | 3980 |  |  | 631 |  |
| CC(C)c1ccc(COc2ccc(-c3c(-c4ccncc4)nn4c3C(=O)N(CCN(C)C)CC4)cc2)cc1 [Compound 61] |  | 6.3 | 5.9 |  |  | 631 | > 10000 |  |  |
| CC(C)c1ccc(COc2ccc(-c3c(-c4ccncc4)nn4c3C(=O)N(CCNCC(F)(F)F)CC4)cc2)cc1 [Compound 62] | 200 | 7.0 | 6.6 |  |  | 501 | > 10000 |  |  |
| CC(=O)OC(C)CN1CCn2nc(-c3ccncc3)c(-c3ccc(OCc4ccc(C(C)C)cc4)cc3)c2C1=O (stereo not shown) [Compound 69] | 63.1 | 7.4 | <5 |  | > 10000 |  |  | 200 |  |
| CC(C)c1ccc(CC(=O)N2CC=C(c3c(-c4ccncc4)nn4c3C(=O)NCC4)CC2)cc1 [Compound 77] | 316 | 6.3 | 6.3 |  |  | 2000 | > 10000 |  |  |
| CC(C)c1ccc(COc2ccc(-c3c(-c4ccncc4)nn4c3C(=O)NCC4)cc2)cc1CN [Compound 86] | 10 | 7.2 | 6.9 |  | > 10000 |  |  | 501 |  |
| CC(C)c1ccc(C(C)Oc2ccc(-c3c(-c4ccncc4)nn4c3C(=O)NCC4)cc2)cc1 (stereo not shown) [Compound 143] | 1000 | 6.4 | 6.0 |  |  |  | 5010 |  | 217 |
| CC(C)c1ccc(C(C)Oc2ccc(-c3c(-c4ccncc4)nn4c3C(=O)N(CCO)CC4)cc2)cc1 (stereo not shown) [Compound 145] | 3160 | 5.8 | 5.1 | <5.5 |  |  |  |  |  |
| O=C1NCCn2nc(-c3ccncn3)c(-c3ccc(OCc4ccc(C5CC5)nc4)cc3)c21 [Compound 168] | 398 | 6.5 | 6.2 |  |  |  | > 10000 |  | 254 |
| O=C1c2c(-c3ccc(OCc4ccc(C5CC5)nc4)cc3)c(-c3ccncn3)nn2CCN1CCO [Compound 169] | 1000 | 6.2 | 5.6 |  |  |  | > 10000 |  | 143 |
| CC(C)c1ccc(COc2ccc(-c3c(-c4ccncc4)nn4c3C(=O)N(CCO)CC4)c(F)c2)cc1CCO [Compound 205] | 7.94 | 7.8 | 7.5 |  |  |  | > 10000 |  | 151 |
| CC(C)c1ccc(COc2ccc(-c3c(-c4ccncc4)nn4c3C(=O)N(C)CC4)cn2)cc1 [Compound 211] | 31.6 | 7.3 | 7.3 |  | > 10000 |  |  |  | 57 |
| CC(C)c1ccc(COc2ccc(-c3c(-c4ccncc4)nn4c3C(=O)N(CCS(C)(=O)=O)CC4)cn2)cc1 [Compound 213] | 100 | 7.0 | 6.4 |  | > 10000 |  |  |  | 200 |
| CC(C)c1ccc(C2Oc3ccc(-c4c(-c5ccncc5)nn5c4C(=O)NCC5)cc3NC2=O)cc1 (stereo not shown) [Compound 231] | 794 | 6.4 | 5.7 |  | > 10000 |  |  |  | 291 |

Source: patent US10280170B2, “Substituted 4,5,6,7-tetrahydro-pyrazolo[1,5-a]pyrazine derivatives and 5,6,7,8-tetrahydro-4H-pyrazolo[1,5-a][1,4]diazepine derivatives as Ros1 inhibitors” (Janssen Pharmaceutica NV, priority 2014, dated 2019)
